Where two headings read alike, the source gives them in different places.
Test system: panel of nearly 500 cancer cell lines
Assay: Cancer Cell Line Encyclopedia profiling, 3-day CellTiter-Glo
Format: cell-based
Settings: read-out: IC50

Structure (SMILES): CC(=O)c1c(C)c2cnc(Nc3ccc(N4CCNCC4)cn3)nc2n(C2CCCC2)c1=O [Palbociblib]
- IC50 (22rv1 (prostate)): > 8 µM
- IC50 (639v (urinary_tract)): > 8 µM
- IC50 (769p (kidney)): 6.7 µM
- IC50 (5637 (urinary_tract)): > 8 µM
- IC50 (8305c (thyroid)): 5.34 µM
- IC50 (8505c (thyroid)): > 8 µM
- IC50 (a172 (central_nervous_system)): > 8 µM
- IC50 (a204 (soft_tissue)): > 8 µM
- IC50 (a253 (salivary_gland)): > 8 µM
- IC50 (a375 (skin)): > 8 µM
- IC50 (a549 (lung)): > 8 µM
- IC50 (a673 (bone)): > 8 µM
- IC50 (a2058 (skin)): > 8 µM
- IC50 (a2780 (ovary)): > 8 µM
- IC50 (amo1 (haematopoietic_and_lymphoid_tissue)): > 8 µM
- IC50 (an3ca (endometrium)): 7.05 µM
- IC50 (aspc1 (pancreas)): > 8 µM
- IC50 (au565 (breast)): 7.56 µM
- IC50 (az521 (stomach)): > 8 µM
- IC50 (bdcm (haematopoietic_and_lymphoid_tissue)): 1.92 µM
- IC50 (bftc909 (kidney)): > 8 µM
- IC50 (bgc823 (stomach)): > 8 µM
- IC50 (bl41 (haematopoietic_and_lymphoid_tissue)): > 8 µM
- IC50 (bl70 (haematopoietic_and_lymphoid_tissue)): 4.53 µM
- IC50 (bt20 (breast)): > 8 µM
- IC50 (bt474 (breast)): > 8 µM
- IC50 (bt549 (breast)): > 8 µM
- IC50 (c2bbe1 (large_intestine)): > 8 µM
- IC50 (c3a (liver)): > 8 µM
- IC50 (c32 (skin)): > 8 µM
- IC50 (caki2 (kidney)): > 8 µM
- IC50 (cal27 (upper_aerodigestive_tract)): > 8 µM
- IC50 (cal78 (bone)): > 8 µM
- IC50 (cal851 (breast)): > 8 µM
- IC50 (calu1 (lung)): > 8 µM
- IC50 (calu3 (lung)): > 8 µM
- IC50 (cama1 (breast)): > 8 µM
- IC50 (capan2 (pancreas)): > 8 µM
- IC50 (cas1 (central_nervous_system)): > 8 µM
- IC50 (cell line tyknu, ovary): > 8 µM
- IC50 (cell line u87mg, central_nervous_system): > 8 µM
- IC50 (cell line u118mg, central_nervous_system): > 8 µM
- IC50 (cell line u2os, bone): > 8 µM
- IC50 (cell line u937, haematopoietic_and_lymphoid_tissue): > 8 µM
- IC50 (cell line uacc812, breast): > 8 µM
- IC50 (cell line umuc3, urinary_tract): > 8 µM
- IC50 (cell line vmrclcd, lung): 1.86 µM
- IC50 (cell line vmrcrcw, kidney): > 8 µM
- IC50 (cell line vmrcrcz, kidney): > 8 µM
- IC50 (cell line ykg1, central_nervous_system): 7.34 µM
- IC50 (cell line zr7530, breast): > 8 µM
- IC50 (chl1 (skin)): > 8 µM
- IC50 (ci1 (haematopoietic_and_lymphoid_tissue)): 6.5 µM
- IC50 (cmk (haematopoietic_and_lymphoid_tissue)): 5.49 µM
- IC50 (colo201 (large_intestine)): 1.48 µM
- IC50 (colo205 (large_intestine)): 7.19 µM
- IC50 (colo320 (large_intestine)): 6.83 µM
- IC50 (colo679 (skin)): > 8 µM
- IC50 (corl23 (lung)): > 8 µM
- IC50 (corl23cpr (lung)): > 8 µM
- IC50 (cov318 (ovary)): > 8 µM
- IC50 (cov504 (ovary)): > 8 µM
- IC50 (daoy (central_nervous_system)): > 8 µM
- IC50 (dbtrg05mg (central_nervous_system)): > 8 µM
- IC50 (detroit562 (upper_aerodigestive_tract)): 3.17 µM
- IC50 (dkmg (central_nervous_system)): > 8 µM
- IC50 (dms114 (lung)): > 8 µM
- IC50 (dov13 (ovary)): > 8 µM
- IC50 (du145 (prostate)): > 8 µM
- IC50 (eb1 (haematopoietic_and_lymphoid_tissue)): > 8 µM
- IC50 (eb2 (haematopoietic_and_lymphoid_tissue)): > 8 µM
- IC50 (ebc1 (lung)): > 8 µM
- IC50 (efe184 (endometrium)): > 8 µM
- IC50 (efm19 (breast)): > 8 µM
- IC50 (efo21 (ovary)): > 8 µM
- IC50 (efo27 (ovary)): > 8 µM
- IC50 (en (endometrium)): > 8 µM
- IC50 (es2 (ovary)): > 8 µM
- IC50 (fadu (upper_aerodigestive_tract)): > 8 µM
- IC50 (fuov1 (ovary)): > 8 µM
- IC50 (g361 (skin)): > 8 µM
- IC50 (g401 (soft_tissue)): > 8 µM
- IC50 (gb1 (central_nervous_system)): > 8 µM
- IC50 (gciy (stomach)): > 8 µM
- IC50 (gct (soft_tissue)): 4.08 µM
- IC50 (glc82 (lung)): > 8 µM
- IC50 (gms10 (central_nervous_system)): > 8 µM
- IC50 (h4 (central_nervous_system)): > 8 µM
- IC50 (hcc15 (lung)): > 8 µM
- IC50 (hcc56 (large_intestine)): > 8 µM
- IC50 (hcc70 (breast)): > 8 µM
- IC50 (hcc78 (lung)): > 8 µM
- IC50 (hcc1187 (breast)): > 8 µM
- IC50 (hcc1569 (breast)): > 8 µM

— paper PMC6219668 (Oncotarget, 2018)
